From PubChem BioAssay AID623945 (Vanderbilt Specialized Chemistry Center, 2012)

molecular target: Muscarinic acetylcholine receptor M4 (Rattus norvegicus) (UniProt P08485); assay: potentiation of rat M4 acetylcholine response – CHO cells, Gqi5 chimera, calcium, ACh EC20, selectivity assay for human M4 PAM optimization, SAR follow-up (AID 623945); settings: CHO rM4/Gqi5 calcium fluorescence
Sequence (P08485 whole entry, looked up): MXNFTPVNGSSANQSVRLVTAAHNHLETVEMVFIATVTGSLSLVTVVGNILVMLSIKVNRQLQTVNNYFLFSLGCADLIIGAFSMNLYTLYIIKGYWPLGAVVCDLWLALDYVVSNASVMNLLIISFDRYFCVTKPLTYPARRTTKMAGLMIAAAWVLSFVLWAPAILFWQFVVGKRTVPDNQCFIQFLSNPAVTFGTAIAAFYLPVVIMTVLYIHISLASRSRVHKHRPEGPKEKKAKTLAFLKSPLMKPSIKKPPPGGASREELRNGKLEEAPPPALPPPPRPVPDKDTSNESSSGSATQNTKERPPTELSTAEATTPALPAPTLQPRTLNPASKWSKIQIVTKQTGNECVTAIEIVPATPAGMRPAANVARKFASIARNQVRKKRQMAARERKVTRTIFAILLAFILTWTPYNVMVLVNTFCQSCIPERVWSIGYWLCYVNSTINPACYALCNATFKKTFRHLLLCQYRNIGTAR

| Compound | EC50 |
| --- | --- |
| Cc1nc2sc(C(=O)NCc3ccc4c(c3)OCO4)c(N)c2c(C)c1Cl | 62 nM |
| Cc1nc2sc(C(=O)NC3CC3)c(N)c2c(C)c1Cl | 151 nM |
| Cc1nc2sc(C(=O)NCc3cccnc3)c(N)c2c(C)c1Cl | 272 nM |
| Cc1nc2sc(C(=O)NCc3nccs3)c(N)c2c(C)c1Cl | 187 nM |
| COc1ccc(C)c2sc(NC(=O)c3ccncc3)nc12 | 3210 nM |
| Cc1nc2sc(C(=O)NCc3cccc(F)c3F)c(N)c2c(C)c1Cl | 114 nM |
| Cc1nc2sc(C(=O)NCc3ccccc3)c(N)c2c(C)c1Cl | 126 nM |
| Cc1nc2sc(C(=O)NCc3ccncc3)c(N)c2c(C)c1Cl | 173 nM |
| Cc1nc2sc(C(=O)NCCc3ccncc3)c(N)c2c(C)c1Cl | 229 nM |
| Cc1nc2sc(C(=O)NCc3ccncn3)c(N)c2c(C)c1Cl | 527 nM |
